Earlier results, collected in US20260206743A1, “PROPINEB NANOSUSPENSION” (priority 2022, published 2026).
Like-named read-outs stand apart in the source and are kept apart here.

Substance: poly [1,2-propylene bis(dithiocarbamate)] zinc [Propineb]
- Solubility in water (20° C.): < 10 µg/mL
- Solubility in organic solvent (DMF+DMSO mixture): exceed 200 g/L
- Solubility in organic solvent (dichloromethane): < 100 µg/mL
- Solubility in organic solvent (hexane): < 100 µg/mL
- Solubility in organic solvent (toluene): < 100 µg/mL
